Our source for the IC50 values is ChEMBL document CHEMBL2150862, “Cyclopropyl-spiro-piperidines Useful as Sodium Channel Blockers: Patent Highlight” (ACS Med Chem Lett, 2012).

One may read the IC50 as the concentration needed to halve the response being measured. A lower IC50 goes with higher potency.

Sequence of Sodium channel protein type 9 subunit alpha (Q15858 whole entry): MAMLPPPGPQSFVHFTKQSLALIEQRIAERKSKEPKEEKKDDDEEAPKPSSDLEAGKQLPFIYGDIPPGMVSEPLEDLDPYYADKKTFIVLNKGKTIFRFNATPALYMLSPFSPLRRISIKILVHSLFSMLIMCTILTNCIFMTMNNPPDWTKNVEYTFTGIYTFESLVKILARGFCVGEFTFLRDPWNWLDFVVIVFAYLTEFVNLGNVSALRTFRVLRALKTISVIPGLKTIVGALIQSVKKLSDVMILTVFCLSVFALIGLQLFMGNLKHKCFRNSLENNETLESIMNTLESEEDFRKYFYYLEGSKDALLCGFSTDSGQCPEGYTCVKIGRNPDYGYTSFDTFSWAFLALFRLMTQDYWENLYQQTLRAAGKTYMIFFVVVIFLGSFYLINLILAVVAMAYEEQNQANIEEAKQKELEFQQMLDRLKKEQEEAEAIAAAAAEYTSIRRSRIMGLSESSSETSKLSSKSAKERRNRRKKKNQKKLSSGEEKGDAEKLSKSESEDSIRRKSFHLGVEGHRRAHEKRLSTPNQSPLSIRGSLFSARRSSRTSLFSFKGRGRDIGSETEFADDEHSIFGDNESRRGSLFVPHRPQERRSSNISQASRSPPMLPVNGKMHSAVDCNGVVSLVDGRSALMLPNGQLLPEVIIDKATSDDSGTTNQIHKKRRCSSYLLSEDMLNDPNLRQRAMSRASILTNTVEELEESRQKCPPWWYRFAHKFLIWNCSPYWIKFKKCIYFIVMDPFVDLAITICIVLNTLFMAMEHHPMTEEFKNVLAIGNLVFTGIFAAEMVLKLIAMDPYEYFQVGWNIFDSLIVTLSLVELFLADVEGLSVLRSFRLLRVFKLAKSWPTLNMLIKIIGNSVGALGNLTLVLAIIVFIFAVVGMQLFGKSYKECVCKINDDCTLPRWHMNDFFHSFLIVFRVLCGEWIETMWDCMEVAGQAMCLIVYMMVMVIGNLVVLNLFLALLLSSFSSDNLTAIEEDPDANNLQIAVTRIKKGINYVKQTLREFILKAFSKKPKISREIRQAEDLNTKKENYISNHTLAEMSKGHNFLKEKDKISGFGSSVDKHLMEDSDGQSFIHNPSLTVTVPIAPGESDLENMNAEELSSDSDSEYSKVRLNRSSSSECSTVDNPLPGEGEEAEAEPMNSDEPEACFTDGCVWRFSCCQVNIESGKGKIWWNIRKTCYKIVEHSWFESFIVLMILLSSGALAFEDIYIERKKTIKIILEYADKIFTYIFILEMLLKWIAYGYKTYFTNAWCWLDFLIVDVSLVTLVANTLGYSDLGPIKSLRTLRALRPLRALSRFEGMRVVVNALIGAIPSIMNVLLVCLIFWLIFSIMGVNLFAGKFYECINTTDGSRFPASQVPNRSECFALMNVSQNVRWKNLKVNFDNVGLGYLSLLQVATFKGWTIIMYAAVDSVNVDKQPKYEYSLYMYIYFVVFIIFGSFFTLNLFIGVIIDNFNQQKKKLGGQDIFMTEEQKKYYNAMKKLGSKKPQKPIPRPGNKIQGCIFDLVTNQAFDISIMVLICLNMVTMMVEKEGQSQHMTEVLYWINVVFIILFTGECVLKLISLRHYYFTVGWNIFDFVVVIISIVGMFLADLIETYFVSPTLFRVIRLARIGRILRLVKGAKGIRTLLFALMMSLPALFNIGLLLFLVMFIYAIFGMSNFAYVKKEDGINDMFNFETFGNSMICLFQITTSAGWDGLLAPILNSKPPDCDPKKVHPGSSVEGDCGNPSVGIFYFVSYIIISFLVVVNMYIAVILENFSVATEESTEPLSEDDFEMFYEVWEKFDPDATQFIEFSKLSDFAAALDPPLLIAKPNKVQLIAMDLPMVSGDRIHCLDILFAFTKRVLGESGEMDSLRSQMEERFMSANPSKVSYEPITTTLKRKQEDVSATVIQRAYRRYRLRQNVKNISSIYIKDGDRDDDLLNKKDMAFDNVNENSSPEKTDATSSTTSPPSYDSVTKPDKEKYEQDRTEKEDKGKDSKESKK

The assay concerns the target Sodium channel protein type 9 subunit alpha (Homo sapiens, UniProt Q15858). The assay can be described thus: Inhibition of Nav1.7 by cell-based FLIPR assay.
Take `c1ccc(CN2CCC3(CC2)CC3CNc2ccccc2N2CCCCC2)cc1` (stereo unspecified): the 50% inhibitory concentration (IC50) stood at 291 nM.

The compound `CN(C)c1ccc(C(=O)NC2CC23CCN(c2ccccc2)CC3)c2ccccc12` (stereo unspecified) showed an IC50 of 98.3 nM.

With `c1ccc(CC(NCC2CC23CCN(c2ccccc2)CC3)c2ccccc2)cc1` (stereo unspecified), the concentration for half-maximal inhibition (IC50) turned out to be 177 nM.

`CN(C)c1cccc2c(C(=O)NC3CC34CCN(c3ccccc3)CC4)cccc12` (stereo unspecified) registered an IC50 of 237 nM.

`CN(C)c1ccc(C(=O)NC2CC23CCN(c2cc(F)cc(F)c2)CC3)c2ccccc12` (stereo unspecified): the IC50 came to 151 nM.

In the case of `O=C(NC1CC12CCN(c1ccccc1)CC2)c1ccc(F)c2ccccc12` (stereo unspecified), the IC50 is 188 nM.
